SMILES strings stand for the structures.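 Growth conditions: 96-well plates. Treatment: test compound, 48 hours, 5 concentrations. Analysis: linear interpolation between bracketing concentrations; unreached endpoints set to highest concentration. The concentration for 50% growth inhibition is given as GI50. The concentration for full growth arrest is given as TGI.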

In the first assay the test system is MDA-N. Put plainly: NCI tumour cell line growth inhibition, 48 h.
For the molecule `Nc1nc(N)c(N=Nc2ccc([As](=O)(O)O)cc2)c(=O)[nH]1`, the TGI is over 100 µM. In turn, `O=c1cc(-c2ccccc2)[nH]c2c(S)cccc12` displayed a TGI of over 100 µM. The same measure, in the same setting: next, `Cc1ccc(-c2nc3ccc([N+](=O)[O-])cc3[nH]2)cc1`: over 100 µM.

On to `N#Cc1c(-c2ccc(F)cc2)c(-c2ccc(F)cc2)nn(CCO)c1=O`, for which the TGI amounted to 0.121 µM. The same measure, in the same setting: next, `Cc1nc2ccccc2nc1-c1ccc(N=[N+]([O-])c2ccc(-c3nc4ccccc4nc3C)cc2)cc1`: over 100 µM.

Another assay deals with XF 498 CNS. The assay can be described thus: NCI tumour cell line growth inhibition, 48 h.
With `c1ccc(SC2CCSc3ccccc3C2Sc2ccccc2)cc1` (stereo not drawn), the TGI was over 100 µM. `COC(=O)[C@]1(C)CCCC2(C)C1CC[C@H]1C=C(C)[C@H]3CCC12C3` (stereo partly drawn) showed a TGI of over 100 µM.

In turn, `O=C(Nc1cc(Cl)ccc1Cl)c1cc2cccc(Cl)c2oc1=O` had a TGI of over 100 µM.

With `O=c1n(-c2ccccc2)c(=O)n2n1C1C=CC2C2C(C1)C2(Cl)Cl` (stereo not drawn), the TGI was over 100 µM. Same read-out and setting: next, `COC1C(O)=C2C(=O)O/C(C)=C/C=C/C=C/C=C\CC(c3ccccc3)NC(=O)\C=C/C=C\C=C\C=C\[C@@]2(C)[C@@H]1O` (stereo partly drawn): 0.304 µM.

`Cc1ccc(Cn2c(C)nc3c2C(=O)c2ccccc2C3=O)cc1` had a TGI of 47.6 µM. `CCOC(=O)C(C)(C)Oc1ccc2c(C)c(-c3ccc(Cl)cc3)c(=O)oc2c1` yielded a TGI of 83.9 µM. Turning to `Cc1c(Cl)cccc1N1C(=O)C(Cl)=C(Cl)C1=O`, the TGI is over 100 µM.

In the case of `COc1cccc(/C=N/[N-]C(=O)c2ccncc2)c1[O-].[Cu+2].[OH3+]`, the GI50 is over 100 µM and the TGI was over 100 µM. Take `CCc1c(OC(C)=O)c2c(NC3OC(COC(C)=O)C(OC(C)=O)C(OC(C)=O)C3OC(C)=O)nc(OC)nc2oc1=O` (stereo not drawn): the TGI is over 100 µM. As to `O=[N+]([O-])c1ccc(-n2nnc(C3=NCCN3)c2-c2ccc(Cl)cc2)cc1`, the TGI is over 100 µM. `O=C(N/N=C1/C(=O)N(c2ccc(Cl)cc2Cl)C(=O)C(=O)C1c1nc2ccccc2o1)c1ccccc1O` (stereo not drawn) registered a TGI of 75.2 µM. `CC(=O)O[C@H]1CCC2[C@@H]3CCC4=C(O)c5nocc5C[C@]4(C)C3CC[C@@]21C` (stereo partly drawn) came in with a TGI of over 100 µM. In the case of `O=C(O)CSc1n[nH]c(-c2ccccc2)n1`, the TGI is over 100 µM. With `CCCCCCC[CH2][Sn]1([CH2]CCCCCCC)[O]C(=O)c2cccnc2[S]1`, the GI50 was 30.8 µM and the TGI was over 100 µM.

With `O=C1[C@@H]2C3c4ccccc4C([C@@H]2C(=O)N1c1ccccc1)S3(=O)=O`, the TGI is over 100 µM. For `COc1ccc(/C(=N\NC(=O)C(N)=O)C(c2ccc(OC)cc2)C2(O)C(=O)Nc3c(Cl)cccc32)cc1` (stereo not drawn), the TGI was over 100 µM.

`Cc1ccc(S(=O)(=O)N/N=C/c2oc(-c3ccncc3)c(-c3ccncc3)c2[N+](=O)[O-])cc1` came in with a TGI of over 100 µM. The same measure, in the same setting: the same measure for `CCc1cccc(C)c1NC(=O)C(=O)Cc1nc2ccccc2o1`: over 100 µM; for `O=C(O)[C@H](NS(=O)(=O)c1ccc2ccccc2c1)c1ccccc1`: over 100 µM; for `CCOc1ccc2c(c1)[n+]([O-])c(-c1ccccc1Cl)c(N)[n+]2[O-]`: over 100 µM.

For the molecule `CN(C)c1c([O-])c(=[N+](C)C)c1=O`, the TGI is over 100 µM.

In a further assay the test system is SNB-78 CNS. The assay can be described thus: NCI tumour cell line growth inhibition, 48 h.
`c1ccc(SC2CCSc3ccccc3C2Sc2ccccc2)cc1` (stereo not drawn): the TGI is over 100 µM. As to `COC(=O)[C@]1(C)CCCC2(C)C1CC[C@H]1C=C(C)[C@H]3CCC12C3` (stereo partly drawn), the TGI is over 100 µM. For the molecule `O=c1n(-c2ccccc2)c(=O)n2n1C1C=CC2C2C(C1)C2(Cl)Cl` (stereo not drawn), the TGI was over 100 µM. With `Cc1ccc(Cn2c(C)nc3c2C(=O)c2ccccc2C3=O)cc1`, the TGI was over 100 µM.

In turn, `Cc1c(Cl)cccc1N1C(=O)C(Cl)=C(Cl)C1=O` returned a TGI of over 100 µM. `COc1ccc(NC(=O)/C(N=O)=C(/C)O)cc1` displayed a TGI of over 100 µM. In the case of `COc1cccc(/C=N/[N-]C(=O)c2ccncc2)c1[O-].[Cu+2].[OH3+]`, the GI50 was over 100 µM and the TGI is over 100 µM. On to `CCc1c(OC(C)=O)c2c(NC3OC(COC(C)=O)C(OC(C)=O)C(OC(C)=O)C3OC(C)=O)nc(OC)nc2oc1=O` (stereo not drawn), for which the TGI is over 100 µM. `O=C(NC(=O)c1cn(CCNCCO)c(=O)[nH]c1=O)OCc1ccccc1` gave a TGI of over 100 µM.

Turning to `O=[N+]([O-])c1ccc(-n2nnc(C3=NCCN3)c2-c2ccc(Cl)cc2)cc1`, the TGI was over 100 µM. `CCOc1ccc(N2C(=O)/C(=C/c3ccc(N(CCC#N)CCC#N)cc3)N=C2c2cc([N+](=O)[O-])ccc2Cl)cc1` returned a TGI of over 100 µM.

On to `COc1ccc(-c2cc(-c3ccccc3)c(C#N)c(=O)n2C2OC(CO)C(O)C(O)C2O)cc1` (stereo not drawn), for which the TGI is over 100 µM. In the case of `CCOC(=O)C1(c2ccccc2)CCC(=O)CC1`, the TGI is over 100 µM. Regarding `CC(=O)O[C@H]1CCC2[C@@H]3CCC4=C(O)c5nocc5C[C@]4(C)C3CC[C@@]21C` (stereo partly drawn), the TGI was over 100 µM.

As for `CCCCCCC[CH2][Sn]1([CH2]CCCCCCC)[O]C(=O)c2cccnc2[S]1`, the GI50 was over 100 µM and the TGI is over 100 µM. As to `O=C1[C@@H]2C3c4ccccc4C([C@@H]2C(=O)N1c1ccccc1)S3(=O)=O`, the TGI was over 100 µM. The molecule `COc1ccc(/C(=N\NC(=O)C(N)=O)C(c2ccc(OC)cc2)C2(O)C(=O)Nc3c(Cl)cccc32)cc1` (stereo not drawn) returned a TGI of over 100 µM. In turn, `Cc1ccc(S(=O)(=O)N/N=C/c2oc(-c3ccncc3)c(-c3ccncc3)c2[N+](=O)[O-])cc1` returned a TGI of over 100 µM. `CCc1cccc(C)c1NC(=O)C(=O)Cc1nc2ccccc2o1` showed a TGI of over 100 µM. Turning to `CCOc1ccc2c(c1)[n+]([O-])c(-c1ccccc1Cl)c(N)[n+]2[O-]`, the TGI is over 100 µM. Regarding `O=C1c2ccccc2C2(O)c3cc4ccccc4cc3OC12O` (stereo not drawn), the TGI is over 100 µM. As for `CN(C)c1c([O-])c(=[N+](C)C)c1=O`, the TGI was over 100 µM.

The values are drawn from PubChem BioAssay (NCI).
